These results are taken from patent US10221125B2, “Solid forms” (Oryzon Genomics, S.A., priority 2015, dated 2019).

What all share (type): physicochemical
Series [1] can be described thus: Stability of the di-hydrochloric acid salt (decomposition, release of HCl).
The nature of series [2]: Hygroscopicity (mass increase when relative humidity is raised from 0% rH to 90% rH). The settings on record: increase in mass. An excerpt: The term “hygroscopicity” describes the ability of a solid material to adsorb moisture. The hygroscopicity of a given API is characterized [European Pharmacopoeia—6th Edition (2008), Chapter 5.11) by the increase in mass when the relative humidity is raised from 0% rH to 90% rH: • non-hygroscopic: weight increase Δm<0.2%; • slightly hygroscopic: weight increase 0.2%≤Δm<2.0%; • hygroscopic: weight increase 2.0%≤Δm<15.0%; • very hygroscopic: weight increase Δm≥15.0%; • a deliquescent: sufficient water is adsorbed to form a liquid.

A short description of series [3]: Long-term incubation/storage at elevated temperature or elevated humidity (phase change).
The nature of series [4]: Long term equilibration slurry experiments (polymorph stability).
A short description of series [5]: Thermal behaviour on heating/cooling (temperature controlled XRPD). As to the method:
For temperature controlled XRPD measurements, the sample was placed without further processing (e.g. grinding or sieving) in a quartz glass capillary of 1 mm diameter and sealed. Measurements were performed with a STOE high-/low-temperature extension (temperature range −50° C. to 300° C.) with am NiCr/Ni-thermal element at a ramp rate of 5° C. per minute, temperature steps every 5° C., 30 minutes measuring time per step, […]

Counter-ions that a name gives are not always drawn.

On to `N[C@H]1CC[C@H](N[C@@H]2C[C@H]2c2ccccc2)CC1` [(trans)-N1-((1R,2S)-2-phenylcyclopropyl)cyclohexane-1,4-diamine di-hydrochloride], for which the “stability of di-hydrochloric acid salt (decomposition to mono-hydrochloride, release of corrosive hydrochloric acid)” value in series [1] was “does not decompose and release corrosive hydrochloric acid”.

As for `N[C@H]1CC[C@H](N[C@@H]2C[C@H]2c2ccccc2)CC1` [Form A, (trans)-N1-((1R,2S)-2-phenylcyclopropyl)cyclohexane-1,4-diamine di-hydrochloride], the hygroscopicity result in series [2] was “slightly hygroscopic (slightly hygroscopic: weight increase 0.2%≤Δm<2.0%)”. Further, the “phase change to Form B on long term storage” value in series [3] (increased humidity, e.g. 100% rH) is “does not induce a phase change to Form B”.

In the case of `N[C@H]1CC[C@H](N[C@@H]2C[C@H]2c2ccccc2)CC1` [Form B, (trans)-N1-((1R,2S)-2-phenylcyclopropyl)cyclohexane-1,4-diamine di-hydrochloride], the polymorph stability ranking entry in series [4] is “most stable polymorph”. Further, the hygroscopicity entry in series [2] was “slightly hygroscopic (slightly hygroscopic: weight increase 0.2%≤Δm<2.0%)”. The “formation of Form C upon heating” value in series [5] (heating of Form B) is reported as “cannot be prepared upon heating of Form B”. In addition, the decomposition temperature result in series [5] (on heating, di-hydrochloride) is “above 210 °C”. Further, in series [3], the “stability as compared to Form A” value is “substantially increased”. For the same compound, the “phase change during long-term incubation” value in series [3] (elevated temperature or elevated humidity, even at 100% rH) is listed as “no phase-change is observed”.

`N[C@H]1CC[C@H](N[C@@H]2C[C@H]2c2ccccc2)CC1` [Form C, (trans)-N1-((1R,2S)-2-phenylcyclopropyl)cyclohexane-1,4-diamine di-hydrochloride]: the polymorph stability description result in series [5] is “unstable high-temperature polymorph”.
